Assay results reported in patent US20140163082A1, “PYRAZOLYL COMPOUNDS FOR USE IN REVERSING REACTIVE GLIOSIS” (priority 2011, published 2014).

Tests used:
[1] = tested on: R28 cells; assay: Viability assay (DAPI exclusion test), R28; settings: R28 cells in culture after incubation
[2] = tested on: rMC-1 cells; assay: Viability assay (DAPI exclusion test), rMC-1; settings: rMC-1 cells in culture after incubation

SMILES: COc1cccc2c1C(=O)c1c(O)c3c(c(O)c1C2=O)C[C@@](O)(C(=O)CO)C[C@@H]3O[C@H]1C[C@H](N)[C@H](O)[C@H](C)O1 [Doxorubicin]
- cell viability (DAPI exclusion) [1]: significant nonviability staining
- cell viability (DAPI exclusion) [2]: significant nonviability staining
